The assay concerns Endogenous Huntingtin Protein. As to the kind of experiment: Endogenous Huntingtin Protein Assay (Meso Scale Discovery ELISA-based electrochemiluminescence). It is filed as cell-based. The following applies: MSD electrochemiluminescence, Table 1. The procedure: Compounds of Formula (I) were tested using the Meso Scale Discovery (MSD) Assay provided in International Application No. PCT/US2016/066042, filed on Dec. 11, 2016 and claiming priority to United States Provisional Application U.S. 62/265,652 filed on Dec. 10, 2015, the entire contents of which are incorporated herein by reference.
The Endogenous Huntingtin Protein assay used in Example 1 was developed using the ELISA-based MSD electrochemiluminescence assay platform.
Endogenous Huntingtin Protein Assay
Meso Scale Discovery (MSD) 96-well or 384-well plates were coated overnight at 4° C. with MW1 (expanded polyglutamine) or MAB2166 monoclonal antibody (for capture) at a concentration of 1 μg/mL in PBS (30 μL per well). Plates were then washed three times with 300 μL wash buffer (0.05% Tween-20 in PBS) and blocked (100 μL blocking buffer; 5% BSA in PBS) for 4-5 hours at room temperature with rotational shaking and then washed three times with wash buffer.
Samples (25 μL) were transferred to the antibody-coated MSD plate and incubated overnight at 4° C. After removal of the lysates, the plate was washed three times with wash buffer, and 25 μL of #5656S (Cell signaling; rabbit monoclonal) secondary antibody (diluted to 0.25 μg/mL in 0.05% Tween-20 in blocking buffer) was added to each well and incubated with shaking for 1 Hour at room temperature. Following incubation with the secondary antibody, the wells were rinsed with wash buffer after which 25 μL of goat anti-rabbit SULFO TAG secondary detection antibody (required aspect of the MSD system) (diluted to 0.25 μg/mL in 0.05% Tween-20 in blocking buffer) was added to each well and incubated with shaking for 1 hour at room temperature. After rinsing three times with wash buffer, 150 μL of read buffer T with surfactant (MSD) were added to each empty well, and the plate was imaged on a SI 6000 imager (MSD) according to manufacturers' instructions provided for 96- or 384-well plates.
The compound `Cc1cn2nc(-c3cc4c(F)cc(C5=CCNCC5)cc4nn3)cc(C)c2n1` [Compound 167, 3-(2,8-dimethylimidazo[1,2-b]pyridazin-6-yl)-5-fluoro-7-(1,2,3,6-tetrahydropyridin-4-yl)cinnoline] had an IC50 of at most 100 nM.

`Cc1cn2nc(-c3cc(F)c4cc(C5CCNCC5)nnc4c3)cc(OCCCn3cnc4ccccc43)c2n1` [Compound 150, 7-{8-[3-(1H-benzimidazol-1-yl)propoxy]-2-methylimidazo[1,2-b]pyridazin-6-yl}-5-fluoro-3-(piperidin-4-yl)cinnoline] yielded a half-maximal inhibitory concentration (IC50) of at most 100 nM.

`Cc1cn2nc(-c3cc(F)c4cc(C5C[C@@H](C)N[C@@H](C)C5)nnc4c3)cc(C)c2n1` (stereo partly drawn) [Compound 90, 7-(2,8-dimethylimidazo[1,2-b]pyridazin-6-yl)-3-[(2R,4r,6S)-2,6-dimethylpiperidin-4-yl]-5-fluorocinnoline] registered an IC50 of at most 100 nM.

`CCN1CCC(c2cc3c(F)cc(-c4nc5c(C)nc(C)cc5s4)cc3nn2)CC1` [Compound 147, 7-(4,6-dimethyl[1,3]thiazolo[4,5-c]pyridin-2-yl)-3-(1-ethylpiperidin-4-yl)-5-fluorocinnoline] showed an IC50 of 100 to 500 nM.

Compound `CCN1CCC(c2cc3c(F)cc(-c4nc5cc(C)nc(C)c5s4)cc3nn2)CC1` [Compound 197, 7-(4,6-dimethyl[1,3]thiazolo[5,4-c]pyridin-2-yl)-3-(1-ethylpiperidin-4-yl)-5-fluorocinnoline] displayed an IC50 of at most 100 nM.

In turn, `Cc1cn2cc(-c3cc(F)c4cc(C5CCNCC5)nnc4c3)cc(C)c2n1` [Compound 103, 7-(2,8-dimethylimidazo[1,2-a]pyridin-6-yl)-5-fluoro-3-(piperidin-4-yl)cinnoline] registered an IC50 of at most 100 nM.

Consider `Cc1cc(-c2ccc3nc(C4CCNCC4)cnc3c2)cc2cn(C)nc12` [Compound 31, 6-(2,7-dimethyl-2H-indazol-5-yl)-2-(piperidin-4-yl)quinoxaline], for which the IC50 fell in the range of 100 to 500 nM.

Turning to `Cc1cn2nc(-c3cc(F)c4nc(C5CCN(C)CC5)nnc4c3)cc(C)c2n1` [Compound 69, 7-(2,8-dimethylimidazo[1,2-b]pyridazin-6-yl)-5-fluoro-3-(1-methylpiperidin-4-yl)-1,2,4-benzotriazine], the IC50 is at most 100 nM.

In turn, `Cc1cc(-c2ccc3nc(C4CCNCC4)ccc3c2)cc2cn(C)nc12` [Compound 15, 6-(2,7-dimethyl-2H-indazol-5-yl)-2-(piperidin-4-yl)quinoline] displayed an IC50 of at most 100 nM.

Turning to `CCN1CCC(c2cc3c(F)cc(-c4cc(OC)c5nn(C)cc5n4)cc3nn2)CC1` [Compound 173, 3-(1-ethylpiperidin-4-yl)-5-fluoro-7-(7-methoxy-2-methyl-2H-pyrazolo[4,3-b]pyridin-5-yl)cinnoline], the 50% inhibitory concentration (IC50) was at most 100 nM.

Regarding `Cc1cn2nc(-c3cc(F)c4nc(C5CCN(C)CC5)ccc4c3)cc(C)c2n1` [Compound 47, 6-(2,8-dimethylimidazo[1,2-b]pyridazin-6-yl)-8-fluoro-2-(1-methylpiperidin-4-yl)quinoline], the IC50 was at most 100 nM.

Regarding `CCCc1cc(-c2cc(F)c3cc(C4CCNCC4)nnc3c2)nn2cc(C)nc12` [Compound 204, 5-fluoro-7-(2-methyl-8-propylimidazo[1,2-b]pyridazin-6-yl)-3-(piperidin-4-yl)cinnoline], the half-maximal inhibitory concentration (IC50) is at most 100 nM.

Take `Cc1cn2nc(-c3cc(F)c4cc(C5CCNCC5)nnc4c3)cc(C)c2n1` [Compound 74, 7-(2,8-dimethylimidazo[1,2-b]pyridazin-6-yl)-5-fluoro-3-(piperidin-4-yl)cinnoline]: the IC50 is at most 100 nM.

Compound `Cc1cn2nc(-c3cc(F)c4cc(C5CCNCC5)nnc4c3)cc(OCCCn3ccnc3)c2n1` [Compound 142, 5-fluoro-7-{8-[3-(1H-imidazol-1-yl)propoxy]-2-methylimidazo[1,2-b]pyridazin-6-yl}-3-(piperidin-4-yl)cinnoline] displayed an IC50 of 100 to 500 nM.

As for `Cc1cn2nc(-c3cc(F)c4cc(N5CCC(N(C)C)CC5)nnc4c3)cc(C)c2n1` [Compound 88, 1-[7-(2,8-dimethylimidazo[1,2-b]pyridazin-6-yl)-5-fluorocinnolin-3-yl]-N,N-dimethylpiperidin-4-amine], the IC50 is at most 100 nM.

In the case of `Cc1cc2nc(-c3cc(F)c4cc(C5CCNCC5)nnc4c3)sc2c(C)n1` [Compound 196, 7-(4,6-dimethyl[1,3]thiazolo[5,4-c]pyridin-2-yl)-5-fluoro-3-(piperidin-4-yl)cinnoline], the IC50 was at most 100 nM.

As to `Cc1cn2nc(-c3cc4c(F)cc(C5CCNCC5)cc4nn3)cc(C)c2n1` [Compound 185, 3-(2,8-dimethylimidazo[1,2-b]pyridazin-6-yl)-5-fluoro-7-(piperidin-4-yl)cinnoline], the concentration for half-maximal inhibition (IC50) was at most 100 nM.

Compound `Cc1cn2nc(-c3cc(F)c4cc(C5CCN(CCF)CC5)nnc4c3)cc(C#N)c2n1` [Compound 179, 6-{5-fluoro-3-[1-(2-fluoroethyl)piperidin-4-yl]cinnolin-7-yl}-2-methylimidazo[1,2-b]pyridazine-8-carbonitrile] registered a half-maximal inhibitory concentration (IC50) of at most 100 nM.

Compound `Cc1cn2nc(-c3cc(F)c4cc(N5C[C@@H](C)N[C@@H](C)C5)nnc4c3)cc(C)c2n1` [Compound 81, 7-(2,8-dimethylimidazo[1,2-b]pyridazin-6-yl)-3-[(3R,5S)-3,5-dimethylpiperazin-1-yl]-5-fluorocinnoline] registered an IC50 of at most 100 nM.

Regarding `CCN1CCC(c2cc(F)c3cc(-c4cc(F)c5nc(C)cn5c4)nnc3c2)CC1` [Compound 144, 7-(1-ethylpiperidin-4-yl)-5-fluoro-3-(8-fluoro-2-methylimidazo[1,2-a]pyridin-6-yl)cinnoline], the IC50 is at most 100 nM.

Consider `Cc1cn2nc(-c3cc(F)c4cc(C5CCNCC5)nnc4c3)cc(Oc3ccccc3)c2n1` [Compound 195, 5-fluoro-7-(2-methyl-8-phenoxyimidazo[1,2-b]pyridazin-6-yl)-3-(piperidin-4-yl)cinnoline], for which the IC50 is at most 100 nM.

Regarding `Cc1nc2c(C)cc(-c3cc(F)c4nc(C5CCNCC5)nnc4c3)cc2[nH]1` [Compound 63, 7-(2,4-dimethyl-1H-benzimidazol-6-yl)-5-fluoro-3-(piperidin-4-yl)-1,2,4-benzotriazine], the IC50 was at most 100 nM.

`Cn1cc2cc(-c3ccc4cc(C5CCNCC5)ccc4n3)ccc2n1` [Compound 1, 2-(2-methyl-2H-indazol-5-yl)-6-(piperidin-4-yl)quinoline] registered an IC50 of 1000 to 3000 nM.

For the compound `CCN1CCC(c2cc3c(F)cc(-c4cc(Oc5ccccc5)c5nc(C)cn5n4)cc3nn2)CC1` [Compound 200, 3-(1-ethylpiperidin-4-yl)-5-fluoro-7-(2-methyl-8-phenoxyimidazo[1,2-b]pyridazin-6-yl)cinnoline], the IC50 was at most 100 nM.

The compound `Cc1cn2cc(-c3nnc4cc(C5CCNCC5)cc(F)c4n3)cc(F)c2n1` [Compound 41, 5-fluoro-3-(8-fluoro-2-methylimidazo[1,2-a]pyridin-6-yl)-7-(piperidin-4-yl)-1,2,4-benzotriazine] registered a half-maximal inhibitory concentration (IC50) of 100 to 500 nM.

For the compound `CCc1cc(-c2cc(F)c3cc(C4CCNCC4)nnc3c2)nn2cc(C)nc12` [Compound 105, 7-(8-ethyl-2-methylimidazo[1,2-b]pyridazin-6-yl)-5-fluoro-3-(piperidin-4-yl)cinnoline], the concentration for half-maximal inhibition (IC50) was at most 100 nM.

Compound `Cc1cn2nc(-c3cc(F)c4cc(N5C[C@@H]6[C@H](C5)[C@H]6N(C)C)nnc4c3)cc(C)c2n1` [Compound 223, (1R,5S,6s)-3-[7-(2,8-dimethylimidazo[1,2-b]pyridazin-6-yl)-5-fluorocinnolin-3-yl]-N,N-dimethyl-3-azabicyclo[3.1.0]hexan-6-amine] yielded an IC50 of at most 100 nM.

On to `CCc1cc(-c2cc(F)c3cc(C4CCNCC4)nnc3c2)nc2cn(C)nc12` [Compound 172, 7-(7-ethyl-2-methyl-2H-pyrazolo[4,3-b]pyridin-5-yl)-5-fluoro-3-(piperidin-4-yl)cinnoline], for which the IC50 was at most 100 nM.

With `Cn1cc2cc(-c3cc(F)c4cc(C5CCNCC5)nnc4c3)cc(C#N)c2n1` [Compound 104, 5-[5-fluoro-3-(piperidin-4-yl)cinnolin-7-yl]-2-methyl-2H-indazole-7-carbonitrile], the IC50 is at most 100 nM.

Regarding `Cc1nc2c(C)cc(-c3cc(F)c4cc(C5CCNCC5)nnc4c3)cc2s1` [Compound 118, 7-(2,4-dimethyl-1,3-benzothiazol-6-yl)-5-fluoro-3-(piperidin-4-yl)cinnoline], the 50% inhibitory concentration (IC50) fell in the range of 100 to 500 nM.

The compound `Cc1cn2nc(-c3ccc4nc(C5CCNCC5)ccc4c3)cc(C)c2n1` [Compound 19, 6-(2,8-dimethylimidazo[1,2-b]pyridazin-6-yl)-2-(piperidin-4-yl)quinoline] had an IC50 of at most 100 nM.

The compound `Cc1nc2c(C)cc(-c3cc(F)c4cc(C5CCNCC5)nnc4c3)nc2o1` [Compound 148, 7-(2,7-dimethyl[1,3]oxazolo[5,4-b]pyridin-5-yl)-5-fluoro-3-(piperidin-4-yl)cinnoline] displayed an IC50 of at most 100 nM.

Source of the values: patent publication US12384789B2, “Compounds for treating Huntington's disease” (PTC Therapeutics, Inc., priority 2017, dated 2025).
